Data published in patent publication US20230257372A1 (CHONG KUN DANG PHARMACEUTICAL CORP., priority 2020, published 2023).
Where two headings read alike, the source gives them in different places.

Legend:
human recombinant HDAC1 = target: T1, human recombinant HDAC1 (Homo sapiens, UniProt Q13547); assay: HDAC1 enzyme activity inhibition (HDAC Fluorimetric Drug Discovery Kit); type: biochemical; conditions: read-out: HDAC1
T1 construct: purchased Enzo Life Science, Inc. BML-SE456
Procedure, shortened: (§1)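 Fluorimetric deacetylase read-out: after 30 min with Developer II following a 60 min, 30° C reaction of recombinant enzyme ([…]) with 10 μM substrate, across five-fold serial compound dilutions.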

human recombinant HDAC6 = target: T2, human recombinant HDAC6 (Homo sapiens, UniProt Q9UBN7); assay: HDAC6 enzyme activity inhibition (HDAC Fluorimetric Drug Discovery Kit); type: biochemical
T2 construct: purchased Calbiochem Inc. 382180
T2 sequence (Q9UBN7 1-1215): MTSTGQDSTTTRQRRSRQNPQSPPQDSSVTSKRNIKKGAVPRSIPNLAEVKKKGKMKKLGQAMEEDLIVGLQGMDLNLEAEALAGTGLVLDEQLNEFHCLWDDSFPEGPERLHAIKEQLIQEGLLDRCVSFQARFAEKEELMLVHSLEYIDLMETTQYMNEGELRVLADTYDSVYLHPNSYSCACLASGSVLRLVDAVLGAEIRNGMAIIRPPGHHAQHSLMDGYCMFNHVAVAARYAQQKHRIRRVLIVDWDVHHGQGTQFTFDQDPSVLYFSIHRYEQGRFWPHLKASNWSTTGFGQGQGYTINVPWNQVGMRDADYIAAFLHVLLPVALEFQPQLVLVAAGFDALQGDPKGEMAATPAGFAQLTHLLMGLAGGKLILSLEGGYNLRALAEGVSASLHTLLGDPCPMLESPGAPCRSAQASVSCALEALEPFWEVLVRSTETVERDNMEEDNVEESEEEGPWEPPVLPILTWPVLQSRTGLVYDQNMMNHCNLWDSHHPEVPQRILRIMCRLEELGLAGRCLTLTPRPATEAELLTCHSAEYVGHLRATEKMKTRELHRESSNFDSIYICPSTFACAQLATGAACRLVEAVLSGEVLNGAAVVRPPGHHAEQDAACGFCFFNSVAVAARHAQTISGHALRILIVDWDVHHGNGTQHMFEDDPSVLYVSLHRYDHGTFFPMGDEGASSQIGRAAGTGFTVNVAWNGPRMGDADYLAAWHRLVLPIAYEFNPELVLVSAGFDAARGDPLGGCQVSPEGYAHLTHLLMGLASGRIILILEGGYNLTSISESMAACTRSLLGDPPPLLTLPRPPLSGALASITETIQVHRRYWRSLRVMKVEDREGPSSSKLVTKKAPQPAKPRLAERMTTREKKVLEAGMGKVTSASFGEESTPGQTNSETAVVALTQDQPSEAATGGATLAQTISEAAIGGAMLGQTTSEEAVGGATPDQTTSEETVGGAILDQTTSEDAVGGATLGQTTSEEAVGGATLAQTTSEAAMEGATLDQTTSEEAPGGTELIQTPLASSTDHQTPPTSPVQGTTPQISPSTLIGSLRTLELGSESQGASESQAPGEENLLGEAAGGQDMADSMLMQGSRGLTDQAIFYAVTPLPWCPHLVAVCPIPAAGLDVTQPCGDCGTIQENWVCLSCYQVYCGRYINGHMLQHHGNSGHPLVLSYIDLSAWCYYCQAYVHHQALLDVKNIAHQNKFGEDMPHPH
Procedure, shortened: as §1

[1] = human recombinant HDAC1, Fluor de Lys substrate, 30° C. 60 minutes
[2] = human recombinant HDAC6, same protocol as HDAC1
[3] = human recombinant HDAC1, IC50 calculated with GraphPad Prism
[4] = human recombinant HDAC6, IC50 calculated with GraphPad Prism

T1 sequence (Q13547 whole entry): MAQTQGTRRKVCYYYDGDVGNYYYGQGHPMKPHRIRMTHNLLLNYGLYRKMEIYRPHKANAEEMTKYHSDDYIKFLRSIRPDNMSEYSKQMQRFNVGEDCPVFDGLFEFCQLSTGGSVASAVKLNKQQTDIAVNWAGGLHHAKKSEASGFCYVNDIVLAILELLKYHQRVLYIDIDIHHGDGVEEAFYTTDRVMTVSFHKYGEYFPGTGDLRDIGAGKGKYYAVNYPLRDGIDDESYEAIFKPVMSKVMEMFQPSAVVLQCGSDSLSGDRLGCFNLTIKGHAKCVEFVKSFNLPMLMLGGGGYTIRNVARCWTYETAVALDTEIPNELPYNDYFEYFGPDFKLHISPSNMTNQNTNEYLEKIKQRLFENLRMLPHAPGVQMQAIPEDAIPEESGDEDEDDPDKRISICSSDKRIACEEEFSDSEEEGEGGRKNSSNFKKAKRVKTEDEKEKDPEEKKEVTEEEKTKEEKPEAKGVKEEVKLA

In the case of Fc1cc(-c2nnc(C(F)F)o2)ccc1Cn1cc(-c2ccccc2CN2CCCC2)nn1 [Compound 4585, 2-(difluoromethyl)-5-(3-fluoro-4-((4-(2-(pyrrolidin-1-ylmethyl)phenyl)-1H-1,2,3-triazol-1-yl)methyl)phenyl)-1,3,4-oxadiazole], the IC50 (human recombinant HDAC1; [1]) is reported as > 50000 nM, the “HDAC6 selectivity (fold)” value (human recombinant HDAC6; HDAC6 over HDAC1) is reported as 237 fold and the IC50 (human recombinant HDAC6; [2]) is reported as 210 nM.
With FC(F)c1nnc(-c2ccc(Cn3cc(-c4cccc(N5CCN(C6COC6)CC5)c4)nn3)nc2)o1 [Compound 3989, 2-(difluoromethyl)-5-(6-((4-(3-(4-(oxetan-3-yl)piperazin-1-yl)phenyl)-1H-1,2,3-triazol-1-yl)methyl)pyridin-3-yl)-1,3,4-oxadiazole] the IC50 (human recombinant HDAC1; [3]) was > 50000 nM, the “HDAC6 selectivity (fold)” value (human recombinant HDAC6; HDAC1 IC50 / HDAC6 IC50) was 1597 fold and the IC50 (human recombinant HDAC6; [4]) was 31.3 nM.
For Fc1cc(-c2nnc(C(F)F)o2)ccc1Cn1cc(-c2ccc(Br)cn2)nn1 [Compound 16928, 2-(4-((4-(5-bromopyridin-2-yl)-1H-1,2,3-triazol-1-yl)methyl)-3-fluorophenyl)-5-(difluoromethyl)-1,3,4-oxadiazole], the IC50 (human recombinant HDAC1; [1]) was > 50000 nM, the “HDAC6 selectivity (fold)” value (human recombinant HDAC6; HDAC6 over HDAC1) was 586 fold and the IC50 (human recombinant HDAC6; [2]) was 85.3 nM.
For O=C(O)c1ccc(-c2cn(Cc3ccc(-c4nnc(C(F)F)o4)cc3)nn2)cc1 [Compound 3731, 4-(1-(4-(5-(difluoromethyl)-1,3,4-oxadiazol-2-yl)benzyl)-1H-1,2,3-triazol-4-yl)benzoic acid], the IC50 (human recombinant HDAC1; [3]) was > 50000 nM, the “HDAC6 selectivity (fold)” value (human recombinant HDAC6; HDAC1 IC50 / HDAC6 IC50) was 29 fold and the IC50 (human recombinant HDAC6; [4]) was 1720 nM.
In the case of Fc1cc(-c2nnc(C(F)F)o2)cnc1Cn1cc(-c2cccc(C3CCN(C4CN(C5CCC5)C4)CC3)c2)nn1 [Compound 18878], the IC50 (human recombinant HDAC1; [1]) is reported as > 50000 nM, the “HDAC6 selectivity (fold)” value (human recombinant HDAC6; HDAC6 over HDAC1) is reported as 429 fold and the IC50 (human recombinant HDAC6; [2]) is reported as 116 nM.
In the case of FC(F)c1nnc(-c2ccc(Cn3cc(-c4ccnc(N5CCN(C6COC6)CC5)c4)nn3)nc2)o1 [Compound 4594, 2-(difluoromethyl)-5-(6-((4-(2-(4-(oxetan-3-yl)piperazin-1-yl)pyridin-4-yl)-1H-1,2,3-triazol-1-yl)methyl)pyridin-3-yl)-1,3,4-oxadiazole], the IC50 (human recombinant HDAC1; [1]) is reported as > 50000 nM, the “HDAC6 selectivity (fold)” value (human recombinant HDAC6; HDAC6 over HDAC1) is reported as 2057 fold and the IC50 (human recombinant HDAC6; [2]) is reported as 24.3 nM.
FC(F)c1cccc(-c2cn(Cc3ccc(-c4nnc(C(F)F)o4)cc3)nn2)c1 [Compound 4487, 2-(difluoromethyl)-5-(4-((4-(3-(difluoromethyl)phenyl)-1H-1,2,3-triazol-1-yl)methyl)phenyl)-1,3,4-oxadiazole] was tested, and the IC50 (human recombinant HDAC1; [3]) was > 50000 nM, the “HDAC6 selectivity (fold)” value (human recombinant HDAC6; HDAC1 IC50 / HDAC6 IC50) was 627 fold and the IC50 (human recombinant HDAC6; [4]) was 79.7 nM.
CCN1CCC(F)(c2cn(Cc3ccc(-c4nnc(C(F)F)o4)cn3)nn2)CC1 [Compound 4006, 2-(difluoromethyl)-5-(6-((4-(1-ethyl-4-fluoropiperidin-4-yl)-1H-1,2,3-triazol-1-yl)methyl)pyridin-3-yl)-1,3,4-oxadiazole] was tested, and the IC50 (human recombinant HDAC1; [3]) was > 50000 nM, the “HDAC6 selectivity (fold)” value (human recombinant HDAC6; HDAC1 IC50 / HDAC6 IC50) was 375 fold and the IC50 (human recombinant HDAC6; [4]) was 133 nM.
With CC(C)N1CC(c2cn(Cc3ccc(-c4nnc(C(F)F)o4)cn3)nn2)C1 [Compound 3952, 2-(difluoromethyl)-5-(6-((4-(1-isopropylazetidin-3-yl)-1H-1,2,3-triazol-1-yl)methyl)pyridin-3-yl)-1,3,4-oxadiazole] the IC50 (human recombinant HDAC1; [3]) was > 50000 nM, the “HDAC6 selectivity (fold)” value (human recombinant HDAC6; HDAC1 IC50 / HDAC6 IC50) was 76 fold and the IC50 (human recombinant HDAC6; [4]) was 653 nM.
With Fc1cc(-c2nnc(C(F)F)o2)cnc1Cn1cc(-c2ccc(CN3CCC3)cc2Cl)nn1 [Compound 19099, 2-(6-((4-(4-(azetidin-1-ylmethyl)-2-chlorophenyl)-1H-1,2,3-triazol-1-yl)methyl)-5-fluoropyridin-3-yl)-5-(difluoromethyl)-1,3,4-oxadiazole] the IC50 (human recombinant HDAC1; [1]) was > 50000 nM, the “HDAC6 selectivity (fold)” value (human recombinant HDAC6; HDAC6 over HDAC1) was 1061 fold and the IC50 (human recombinant HDAC6; [2]) was 47.1 nM.
In the case of Fc1cc(-c2nnc(C(F)F)o2)ccc1Cn1cc(-c2ccc3c(c2)CN(C2COC2)CC3)nn1 [Compound 4367, 2-(difluoromethyl)-5-(3-fluoro-4-((4-(2-(oxetan-3-yl)-1,2,3,4-tetrahydroisoquinolin-7-yl)-1H-1,2,3-triazol-1-yl)methyl)phenyl)-1,3,4-oxadiazole], the IC50 (human recombinant HDAC1; [3]) is reported as > 50000 nM, the “HDAC6 selectivity (fold)” value (human recombinant HDAC6; HDAC1 IC50 / HDAC6 IC50) is reported as 1210 fold and the IC50 (human recombinant HDAC6; [4]) is reported as 41.3 nM.
For CN1CCC(c2cccc(-c3cn(Cc4ncc(-c5nnc(C(F)F)o5)cc4F)nn3)c2)CC1 [Compound 18869, 2-(difluoromethyl)-5-(5-fluoro-6-((4-(3-(1-methylpiperidin-4-yl)phenyl)-1H-1,2,3-triazol-1-yl)methyl)pyridin-3-yl)-1,3,4-oxadiazole], the IC50 (human recombinant HDAC1; [1]) was > 50000 nM, the “HDAC6 selectivity (fold)” value (human recombinant HDAC6; HDAC6 over HDAC1) was 1075 fold and the IC50 (human recombinant HDAC6; [2]) was 46.5 nM.
For FC(F)c1nnc(-c2ccc(Cn3cc(-c4ccc(CN5CC6(COC6)C5)cc4)nn3)cc2)o1 [Compound 4551, 6-(4-(1-(4-(5-(difluoromethyl)-1,3,4-oxadiazol-2-yl)benzyl)-1H-1,2,3-triazol-4-yl)benzyl)-2-oxa-6-azaspiro[3.3]heptane], the IC50 (human recombinant HDAC1; [1]) was > 50000 nM, the “HDAC6 selectivity (fold)” value (human recombinant HDAC6; HDAC6 over HDAC1) was 4761 fold and the IC50 (human recombinant HDAC6; [2]) was 10.5 nM.
CC(=O)N1CC(c2cn(Cc3ccc(-c4nnc(C(F)F)o4)cn3)nn2)C1 [Compound 3956, 1-(3-(1-((5-(5-(difluoromethyl)-1,3,4-oxadiazol-2-yl)pyridin-2-yl)methyl)-1H-1,2,3-triazol-4-yl)azetidin-1-yl)ethan-1-one] was tested, and the IC50 (human recombinant HDAC1; [3]) was > 50000 nM, the “HDAC6 selectivity (fold)” value (human recombinant HDAC6; HDAC1 IC50 / HDAC6 IC50) was 93 fold and the IC50 (human recombinant HDAC6; [4]) was 536 nM.
Cc1ccc(-c2cn(Cc3ccc(-c4nnc(C(F)F)o4)cc3F)nn2)cc1 [Compound 3733, 2-(difluoromethyl)-5-(3-fluoro-4-((4-(p-tolyl)-1H-1,2,3-triazol-1-yl)methyl)phenyl)-1,3,4-oxadiazole] was tested, and the IC50 (human recombinant HDAC1; [3]) was > 50000 nM, the “HDAC6 selectivity (fold)” value (human recombinant HDAC6; HDAC1 IC50 / HDAC6 IC50) was 215 fold and the IC50 (human recombinant HDAC6; [4]) was 232 nM.
For CCCc1cn(Cc2ccc(-c3nnc(C(F)F)o3)cn2)nn1 [Compound 3831, 2-(difluoromethyl)-5-(6-((4-propyl-1H-1,2,3-triazol-l-yl)methyl)pyridin-3-yl)-1,3,4-oxadiazole], the IC50 (human recombinant HDAC1; [3]) was > 50000 nM, the “HDAC6 selectivity (fold)” value (human recombinant HDAC6; HDAC1 IC50 / HDAC6 IC50) was 343 fold and the IC50 (human recombinant HDAC6; [4]) was 145 nM.
In the case of CN1Cc2ccc(-c3cn(Cc4ccc(-c5nnc(C(F)F)o5)cc4F)nn3)cc2C1 [Compound 4515, 2-(difluoromethyl)-5-(3-fluoro-4-((4-(2-methylisoindolin-5-yl)-1H-1,2,3-triazol-1-yl)methyl)phenyl)-1,3,4-oxadiazole], the IC50 (human recombinant HDAC1; [1]) is reported as > 50000 nM, the “HDAC6 selectivity (fold)” value (human recombinant HDAC6; HDAC6 over HDAC1) is reported as 900 fold and the IC50 (human recombinant HDAC6; [2]) is reported as 55.5 nM.
In the case of Fc1cc(-c2nnc(C(F)F)o2)ccc1Cn1cc(-c2ccc(CN3CCC(F)(F)C3)nc2)nn1 [Compound 17775, 2-(difluoromethyl)-5-(4-((4-(6-((3,3-difluoropyrrolidin-1-yl)methyl)pyridin-3-yl)-1H-1,2,3-triazol-1-yl)methyl)-3-fluorophenyl)-1,3,4-oxadiazole], the IC50 (human recombinant HDAC1; [1]) is reported as > 50000 nM, the “HDAC6 selectivity (fold)” value (human recombinant HDAC6; HDAC6 over HDAC1) is reported as 531 fold and the IC50 (human recombinant HDAC6; [2]) is reported as 94.1 nM.
With Fc1cc(-c2nnc(C(F)F)o2)ccc1Cn1cc(-c2cccc(CN3CCOCC3)c2)nn1 [Compound 4404, 4-(3-(1-(4-(5-(difluoromethyl)-1,3,4-oxadiazol-2-yl)-2-fluorobenzyl)-1H-1,2,3-triazol-4-yl)benzyl)morpholine] the IC50 (human recombinant HDAC1; [3]) was > 50000 nM, the “HDAC6 selectivity (fold)” value (human recombinant HDAC6; HDAC1 IC50 / HDAC6 IC50) was 837 fold and the IC50 (human recombinant HDAC6; [4]) was 59.7 nM.
For O=c1[nH]cccc1-c1cn(Cc2ccc(-c3nnc(C(F)F)o3)cn2)nn1 [Compound 3844, 3-(1-((5-(5-(difluoromethyl)-1,3,4-oxadiazol-2-yl)pyridin-2-yl)methyl)-1H-1,2,3-triazol-4-yl)pyridin-2(1H)-one], the IC50 (human recombinant HDAC1; [3]) was > 50000 nM, the “HDAC6 selectivity (fold)” value (human recombinant HDAC6; HDAC1 IC50 / HDAC6 IC50) was 2415 fold and the IC50 (human recombinant HDAC6; [4]) was 20.7 nM.
For FC(F)c1nnc(-c2ccc(Cn3cc(-c4ccnc(N5CCN(C6CC6)CC5)c4)nn3)nc2)o1 [Compound 4593, 2-(6-((4-(2-(4-cyclopropylpiperazin-1-yl)pyridin-4-yl)-1H-1,2,3-triazol-1-yl)methyl)pyridin-3-yl)-5-(difluoromethyl)-1,3,4-oxadiazole], the IC50 (human recombinant HDAC1; [1]) was > 50000 nM, the “HDAC6 selectivity (fold)” value (human recombinant HDAC6; HDAC6 over HDAC1) was 2127 fold and the IC50 (human recombinant HDAC6; [2]) was 23.5 nM.
